Laboratory results: patent US20060014643A1, “Combinations of aryloxyphenoxypropionates and safeners and their use for increasing weed control” (BAYER CROPSCIENCE GMBH, priority 2002, published 2006)

Columns and labels:
Type in all cases: in vivo
[1] = system: Setaria lutescens; assay: Post-emergence weed control in spring wheat (field trial); conditions: visual scoring 4 weeks after treatment vs untreated, rate g a.i./ha: (A1) 112, (A3) 1680, (B1) 28, mixtures 112 + 28 and 1680 + 28, 300 l water/ha
Method: (§1) Spring wheat was grown outdoors on plots under natural outdoor conditions, and seeds of typical harmful plants were laid out. Treatment with a mixture of a (hetero)aryloxyphenoxypropionate herbicide and the safener mefenpyr-diethyl using standard formulations of the active ingredients at an application rate of 300 l water per hectare was carried out after the harmful plants had emerged and the spring wheat was in the growth stage between 3 and 5 leaves for the plants. The effect of the composition was assessed 4 weeks after treatment by scoring visually in comparison with untreated controls.

[2] = system: Triticum aestivum (spring wheat); assay: Phytotoxicity (crop damage) to spring wheat (field trial); conditions: spring wheat at 3-5 leaves, visual scoring 4 weeks after treatment, rate g a.i./ha: (A1) 112, (A3) 1680, (B1) 28, mixtures 112 + 28 and 1680 + 28
Method: as §1

[3] = system: Alopecurus myosuroides; assay: Post-emergence weed control in winter wheat (field trial); conditions: visual scoring 112 days after treatment vs untreated, rate g a.i./ha: (A5) 37.3, (B1) 10, (A5)+(B1) 37.3 + 10, 300 l water/ha
Method: (§2) Winter wheat was grown outdoors on plots under natural outdoor conditions, and seeds of typical harmful plants were laid out. […] The effect of the composition was assessed 112 days after treatment by scoring visually in comparison with untreated controls.

[4] = system: Triticum aestivum (winter wheat); assay: Phytotoxicity (crop damage) to winter wheat (field trial); conditions: winter wheat at 3-5 leaves, visual scoring 112 days after treatment, rate g a.i./ha: (A5) 37.3, (B1) 10, (A5)+(B1) 37.3 + 10
Method: as §2

Row | SMILES | Weed control (%) of SETLU [1] [%] | Phytotox (%) of TRZAS [2] [%] | Weed control (%) of ALOMY [3] [%] | Phytotox (%) of TRZAW [4] [%]
1 | CC(Oc1ccc(Oc2ccc(Cl)cc2Cl)cc1)C(=O)O (racemic) [(A3), (RS)-2-[4-(2,4-dichlorophenoxy)phenoxy]propionic acid] | 45 | 12 | – | –
2 | C#CCOC(=O)[C@@H](C)Oc1ccc(Oc2ncc(Cl)cc2F)cc1 [(A1), prop-2-ynyl (R)-2-[4-(5-chloro-3-fluoropyridin-2-yloxy)phenoxy]propionate] | 68 | 20 | – | –
3 | CCOC(=O)[C@@H](C)Oc1ccc(Oc2nc3ccc(Cl)cc3o2)cc1 [(A5), ethyl (R)-2-[4-(6-chloro-1,3-benzoxazol-2-yloxy)phenoxy]propionate] | – | – | 69 | 10
4 | CCOC(=O)C1=NN(c2ccc(Cl)cc2Cl)C(C)(C(=O)OCC)C1 (stereo not shown) [(B1), ethyl 1-(2,4-dichlorophenyl)-5-(ethoxycarbonyl)-5-methyl-2-pyrazoline-3-carboxylate] | 0 | 0 | 0 | 0
